Columns and labels:
[1] = Monitoring H2S2 formation from the TTS-TAGDD hybrid compound 3 (SSP4, 12 h); settings: over 12 hours
Procedure: Monitoring H2S2 formation from the TTS-TAGDD hybrid compound 3: TTS and 3 were prepared as 1 mM solutions in DMSO. L-cysteine and Na2S2 were prepared at 4 mM and 1 mM in MilliQ H2O, respectively. SSP4 was dissolved in DMSO to obtain a 200 μM stock solution. CTAB was dissolved in ethanol to yield a 2 mM stock solution. 50 mM PBS buffer (pH 7.4) was added to individual wells of a black polystyrene, flat-bottomed clear 96-well plate, followed by TTS (25 μM) or 3 (25 μM) then cysteine (100 μM) or Na2S2 (25 μM). Samples were mixed by pipetting up and down and incubated in the dark at room temperature (rt) for 30 min. Next, CTAB (50 μM) was added to all wells followed by SSP4 (5 μM), and samples were mixed by pipetting up and down. Samples were then incubated in the dark at room temperature for another 30 min before being measured on a Molecular Devices SpectraMax iD3 Multi-Mode Microplate Reader (fluorescence mode; kinetics measurement type; emission 535 nm; excitation 485 nm; integration time […], low PMT sensitivity, attenuation 1, read height 1.00 mm; total run time: 12 hours; 25 cycles; interval: 0.5 hours). Data was graphed as a time dependent fluorescence response, with F0 as the SSP4 only condition. The fluorescence of Na2S2 over time was not represented in the line graph presented due to the compound's known instability. Data obtained from the 12 h time point including from Na2S2 was also represented in a bar graph for greater clarity. Results were expressed as mean±SEM (n=3).

[2] = molecular target: T1, GAPDH (Oryctolagus cuniculus, UniProt P46406); assay: GAPDH protein S-persulfidation (SSP4 fluorescence, LC-MS/MS); format: biochemical, rabbit; settings: reduced GAPDH 100 μM treated with the reagent only (1 mM)
T1 construct: GAPDH (from rabbit muscle, #G2267, Sigma-Aldrich); purchased Sigma-Aldrich G2267; host or cells: rabbit muscle (tissue-purified)
T1 sequence (P46406 whole entry): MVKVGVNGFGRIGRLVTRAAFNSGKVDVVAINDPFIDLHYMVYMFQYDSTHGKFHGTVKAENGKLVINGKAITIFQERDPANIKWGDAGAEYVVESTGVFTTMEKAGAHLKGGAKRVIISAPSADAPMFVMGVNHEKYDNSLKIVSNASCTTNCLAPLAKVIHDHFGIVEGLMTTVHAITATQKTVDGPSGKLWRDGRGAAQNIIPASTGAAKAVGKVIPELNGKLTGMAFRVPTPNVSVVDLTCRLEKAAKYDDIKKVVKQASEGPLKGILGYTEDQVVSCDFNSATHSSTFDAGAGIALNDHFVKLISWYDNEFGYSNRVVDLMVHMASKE
Procedure: One of the primary functions of H2S2 is to induce protein S-persulfidation. Existing methods treat proteins with Na2S2 directly to obtain the persulfidated proteins. The present disclosure contemplates the use of TTS and H2S to persulfidate proteins as a comparison with Na2S2. GAPDH was used as the protein model and its persulfidation was evaluated by SSP4 using a protocol described in Shieh, M. et al., Shining a light on SSP4: a comprehensive analysis and biological applications for the detection of sulfane sulfurs. Redox Biol. 2022, 56, 102433 and Ni, X. et al., A sweet H2S/H2O2 dual release system and specific protein S-persulfidation mediated by thioglucose/glucose oxidase. J. Am. Chem. Soc. 2021, 143, 13325-13332. Reduced GAPDH (100 μM) was individually treated with 10 eq. of TTS+Na2S or Na2S2, as well as control reagents (TTS or Na2S only). The protein samples were then purified using Zeba Spin Desalting Columns (7K MWCO), diluted (to 10 μM), and treated with SSP4 (5 μM). Fluorescence signals were recorded to reflect persulfidation levels. […] To provide further evidence of persulfidation in the GAPDH system, TTS+Na2S-treated GAPDH was alkylated with HPE-IAM to stabilize the protein persulfides.
216 μL of PBS (50 mM, pH 7.4) was added to 3.9 mg of GAPDH (from rabbit muscle, #G2267, Sigma-Aldrich) to obtain a concentration of 500 μM (MW: 36 kDa). DTT (10 mM in DMSO, 11.35 μL) was added for a final equal concentration with the GAPDH. The solution was incubated in the dark at room temperature for 30 min. Zeba 7K MWCO spin columns were prepared and used according to manufacturer's instructions with 3 PBS washes. Excess reductant was removed by column purification with the Zeba 7K MWCO columns. The resulting reduced protein concentration was determined by the absorbance at 280 nm (εmM=30.4 mM-1 cm-1) using the Nanodrop One Microvolume UV-Vis Spectrophotometer (ThermoFisher Scientific). For controls, reduced GAPDH was treated with NEM (1:5 equiv.) and incubated at rt in the dark for 30 min before excess NEM was removed by the Zeba 7K MWCO columns. Next, the reduced protein was diluted to a final concentration of 100 μM in a final volume of 100 μL and treated with TTS (10 μL of 10 mM in DMSO for a final concentration of 1 mM), Na2S (10 μL of 10 mM in MilliQ H2O for a final concentration of 1 mM), both TTS and Na2S, or Na2S2 (10 μL of 10 mM in MilliQ H2O for a final concentration of 1 mM). For example, if the reduced protein (361 μM) was only to be treated with TTS, 62.3 μL of PBS (50 mM, pH 7.4) would first be added to an Eppendorf tube, followed by 27.7 μL of protein, and followed by 10 μL of TTS. TTS+Na2S and Na2S2 samples were also prepared at the concentrations above without any protein, where PBS (50 mM, pH 7.4) was used in place of the proteins (volume-wise). Samples were incubated at room temperature for 30 min in the dark before being purified by Zeba 7K MWCO columns (three times to ensure proper removal of excess treatment molecules) and quantified by absorbance. […] All samples were then incubated with SSP4 (5 μL of 100 μM in DMSO for a final concentration of 5 μM) in individual wells of a black clear flat bottom 96-well plate. The final volume was 100 μL. For example, if the persulfidated protein (99.5 μM) was to be examined, 84.95 μL of PBS (50 mM, pH 7.4) would first be added to a well, followed by 10.05 μL of protein, and then followed by 5 μL of SSP4. Incubation occurred at room temperature in the dark for 30 min before being measured on the SpectraMax iD3 microplate reader (ex: 485 nm; em: 525 nm).

[3] = test system: HeLa cells; assay: Live cell imaging of H2S2 formation with SSP4; format: cell-based; settings: compound only, 30 min
Procedure: HeLa cells were seeded at ~7000 cells/well in a 96-well clear flat-bottomed BioLite plate (ThermoFisher Scientific, #130188) in DMEM/F12 (1:1) (Gibco, Invitrogen, #11330-032) medium supplemented with 10% fetal bovine serum (FBS) at 37° C., 5% CO2 overnight.
Preparation before cell treatment: Na2S and Na2S2 stocks were prepared at 10 mM in sterile 1×PBS. TTS and TT were prepared at 10 mM concentrations in DMSO. They were then diluted to 50 μM concentrations in serum-free Fluorobrite DMEM in individual Eppendorf tubes (0.5% DMSO). Na2S (final concentration=100 μM) was added to the Eppendorf tube containing Fluorobrite DMEM and TTS or TT immediately before being added to the cells. Compounds were mixed by pipetting up and down prior to cell addition.
Cell treatment: Culturing media was aspirated from all wells, and cells were washed twice with 1×PBS. Compounds were added to cells (200 μL/well) and incubated for 30 min at 37° C., 5% CO2. While cells were incubating, SSP4 treatment was prepared by first adding 5 mM CTAB in ethanol to Fluorobrite DMEM followed by 6.125 mM SSP4 in DMSO to final concentrations of 100 μM and 5 μM, respectively, in a tube. The final volume was 5 mL (0.08% DMSO). Compounds were mixed by pipetting up and down prior to cell addition. After incubation, media was aspirated, and cells were washed twice with 1×PBS. SSP4 treatment was added to all wells (100 μL/well), and cells were incubated for 30 min at 37° C., 5% CO2 for 30 min. Media was then aspirated, and cells were washed three times with 1×PBS. Fluorobrite DMEM was added to all wells before imaging on the Keyence All-in-One Fluorescence Microscope (BZ-X810) (excitation: 470/40 nm; emission: 525/50 nm).
As shown in FIGS. 4(A)-(D), HeLa cells were treated with TTS, TTS+H2S, or TT for 30 min before the fluorescent sensor SSP4 was applied to the cells to monitor the formation of H2S2. […] Na2S2 was used as the positive control in this study (FIG. 4D). Other control studies including TT+H2S, H2S only, and SSP4 only were also performed. […] FIG. 4H is a graph of fluorescence intensities of SSP4 staining. Data are mean values ±SEM calculated using ImageJ. (n=9, where three different images were obtained from each of three samples and quantified).

SMILES	H2S2 formation monitored by SSP4 signals ([1]; 25 μM compound + Cys 100 μM)	SSP4 fluorescence ([1]; 25 μM compound only)	SSP4 fluorescence of persulfidated GAPDH [2]	SSP4 fluorescence in HeLa cells [3]
CC(=O)SC(SC(C)=O)c1cccc(OC(=O)c2ccc(=S=O)sc2)c1 [Compound 3]	steady and continuous H2S2 formation	did not give any notable fluorescence		
[Na+].[Na+].[S-][S-] [Na2S2, reference compound]			strong fluorescence	
[Na+].[Na+].[S-2] [Na2S, reference compound]			did not give any notable fluorescence	Obvious fluorescence in these samples was not observed

Reference: US20260265055A1, “Sulfine-Based Compounds for Generating Hydrogen Persulfide” (Brown University, priority 2023, published 2026)
